Measured values reported in paper PMC4674339 (European journal of medicinal chemistry, 2015).
Read-outs that look alike come from different tables or passages of the source.

Test system: ADP induced human platelet aggregation
Assay: ADP-induced human platelet aggregation, 96-well microplate method
Type: cell-based
[1] = read-out: IC50, nM (95% Confidence Interval), no pre-incubation, 3 μM ADP
[2] = read-out: IC50, nM (95% Confidence Interval), pre-incubation with test compound, 5 μM ADP
[3] = read-out: IC50, nM (95% Confidence Interval), pre-incubation with test compound, 20 μM ADP

Row | IC50 [1] | IC50 [2] | IC50 [3] | SMILES
1 | 144 nM | 15 nM | 26.6 nM | Nc1nc(SCCC(F)(F)F)nc2c1ncn2[C@@H]1O[C@H](COP(=O)(S)OP(=O)(O)C(Cl)P(=O)(O)OP(=O)(S)OC[C@H]2O[C@@H](n3cnc4c(N)nc(SCCC(F)(F)F)nc43)[C@H](O)[C@@H]2O)[C@@H](O)[C@H]1O (mixture of isomers) [Compound 8, P^1,P^4-di-(2-(3,3,3-trifluoropropylthylthio)-5′-adenosine) P^1,P^4-dithio-P^2,P^3-chloromethylenetetraphosphate]
2 | 49.9 nM | 48.5 nM | 416 nM | Nc1nc(I)nc2c1ncn2[C@@H]1O[C@H](COP(=O)(S)OP(=O)(O)C(Cl)P(=O)(O)OP(=O)(S)OC[C@H]2O[C@@H](n3cnc4c(N)nc(I)nc43)[C@H](O)[C@@H]2O)[C@@H](O)[C@H]1O (mixture of isomers) [Compound 12, P^1,P^4-di-(2-iodo-5′-adenosine) P^1,P^4-dithio-P^2,P^3-chloromethylenetetra-phosphate]
3 | 87.8 nM | 173 nM | 936 nM | Nc1nc(Br)nc2c1ncn2[C@@H]1O[C@H](COP(=O)(S)OP(=O)(O)C(Cl)P(=O)(O)OP(=O)(S)OC[C@H]2O[C@@H](n3cnc4c(N)nc(Br)nc43)[C@H](O)[C@@H]2O)[C@@H](O)[C@H]1O (mixture of isomers) [Compound 11, P^1,P^4-di-(2-bromo-5′-adenosine) P^1,P^4-dithio-P^2,P^3-chloromethylenetetra-phosphate]
4 | 295 nM |  |  | CSc1nc(N)c2ncn([C@@H]3O[C@H](COP(=O)(S)OP(=O)(O)C(Cl)(Cl)P(=O)(O)OP(=O)(S)OC[C@H]4O[C@@H](n5cnc6c(N)nc(SC)nc65)[C@H](O)[C@@H]4O)[C@@H](O)[C@H]3O)c2n1 (mixture of isomers) [Compound 16, P^1,P^4-di-(2-methylthio-5′-adenosine) P^1,P^4-dithio-P^2,P^3-dichloromethylenetetraphosphate]
5 | 140 nM | 369 nM | 2690 nM | Nc1nc(Cl)nc2c1ncn2[C@@H]1O[C@H](COP(=O)(S)OP(=O)(O)C(Cl)P(=O)(O)OP(=O)(S)OC[C@H]2O[C@@H](n3cnc4c(N)nc(Cl)nc43)[C@H](O)[C@@H]2O)[C@@H](O)[C@H]1O (mixture of isomers) [Compound 10, P^1,P^4-di-(2-chloro-5′-adenosine) P^1,P^4-dithio-P^2,P^3-chloromethylenetetra-phosphate]
6 | 113 nM | 23.4 nM | 44.6 nM | CCCSc1nc(N)c2ncn([C@@H]3O[C@H](COP(=O)(S)OP(=O)(O)C(Cl)P(=O)(O)OP(=O)(S)OC[C@H]4O[C@@H](n5cnc6c(N)nc(SCCC)nc65)[C@H](O)[C@@H]4O)[C@@H](O)[C@H]3O)c2n1 (mixture of isomers) [Compound 7, P^1,P^4-di-(2-propylthio-5′-adenosine) P^1,P^4-dithio-P^2,P^3-chloromethylenetetraphosphate]
7 | 61.8 nM | 70.3 nM | 731 nM | CSc1nc(N)c2ncn([C@@H]3O[C@H](COP(=O)(S)OP(=O)(O)OP(=O)(O)OP(=O)(S)OC[C@H]4O[C@@H](n5cnc6c(N)nc(SC)nc65)[C@H](O)[C@@H]4O)[C@@H](O)[C@H]3O)c2n1 (mixture of isomers) [Compound 3, P^1,P^4-di-(2-methylthio-5′-adenosine) P^1,P^4-dithiotetraphosphate]
8 | 5870 nM | 10700 nM | 37200 nM | CNc1ncnc2c1ncn2[C@@H]1O[C@H](COP(=O)(S)OP(=O)(O)C(Cl)P(=O)(O)OP(=O)(S)OC[C@H]2O[C@@H](n3cnc4c(NC)ncnc43)[C@H](O)[C@@H]2O)[C@@H](O)[C@H]1O (mixture of isomers) [Compound 13, P^1,P^4-di-(N^6-methyl-5′-adenosine) P^1,P^4-dithio-P^2,P^3-chloromethylenetetraphosphate]
